Legend:
[1] = Activation of monkey NPR1 expressed in CHO-K1 cells assessed as increase in cGMP production measured after 30 mins by HTRF assay; format: cell-based; conditions: Macaca mulatta, CHO-K1, 0.5 h
[2] = molecular target: T1, Atrial natriuretic peptide receptor 1 (Homo sapiens, UniProt P16066); experiment: Activation of human NPR1 expressed in CHO-K1 cells assessed as increase in cGMP production measured after 30 mins by HTRF assay; format: cell-based
T1 sequence (P16066 whole entry): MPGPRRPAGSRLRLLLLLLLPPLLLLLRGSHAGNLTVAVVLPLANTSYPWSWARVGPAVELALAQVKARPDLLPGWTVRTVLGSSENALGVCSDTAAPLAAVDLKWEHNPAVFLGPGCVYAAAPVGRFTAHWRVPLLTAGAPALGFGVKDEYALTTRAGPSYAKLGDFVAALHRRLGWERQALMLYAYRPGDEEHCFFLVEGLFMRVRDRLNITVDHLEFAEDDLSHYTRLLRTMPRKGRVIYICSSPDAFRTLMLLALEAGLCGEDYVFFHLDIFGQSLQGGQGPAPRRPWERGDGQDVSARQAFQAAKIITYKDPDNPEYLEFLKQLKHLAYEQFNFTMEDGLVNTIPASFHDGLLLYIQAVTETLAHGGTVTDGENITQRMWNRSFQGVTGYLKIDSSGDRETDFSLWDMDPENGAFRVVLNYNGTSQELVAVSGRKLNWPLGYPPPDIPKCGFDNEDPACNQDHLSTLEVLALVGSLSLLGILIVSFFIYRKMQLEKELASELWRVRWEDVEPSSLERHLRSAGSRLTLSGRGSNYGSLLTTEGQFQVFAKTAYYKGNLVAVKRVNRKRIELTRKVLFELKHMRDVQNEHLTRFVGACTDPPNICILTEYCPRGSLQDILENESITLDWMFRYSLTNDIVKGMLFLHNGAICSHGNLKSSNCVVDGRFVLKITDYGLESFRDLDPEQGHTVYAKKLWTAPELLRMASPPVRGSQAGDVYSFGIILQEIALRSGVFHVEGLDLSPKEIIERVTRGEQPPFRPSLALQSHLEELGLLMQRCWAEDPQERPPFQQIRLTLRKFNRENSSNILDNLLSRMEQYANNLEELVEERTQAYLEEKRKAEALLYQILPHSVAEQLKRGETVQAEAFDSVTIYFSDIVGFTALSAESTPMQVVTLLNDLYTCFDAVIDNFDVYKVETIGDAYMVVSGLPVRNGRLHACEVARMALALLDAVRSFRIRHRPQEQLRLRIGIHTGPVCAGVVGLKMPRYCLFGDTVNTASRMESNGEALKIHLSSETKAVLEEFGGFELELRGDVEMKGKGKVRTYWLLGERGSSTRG

| AC50 [2] | SMILES | AC50 [1] |
| --- | --- | --- |
|  | CC[C@@H](N(C)c1nc2c(c(N[C@@H](CN3CCCCCC3)c3cnn(C)c3)n1)C[C@H](c1cccc(F)c1)CC2)C12CC(C(=O)O)(C1)C2 | 10 nM |
|  | CC[C@H]([C@H]1CC[C@H](C(=O)O)CC1)N(C)c1nc2c(c(N[C@@H](CN3C4CCCC3CC4)c3ccn(C)n3)n1)C[C@H](c1cccc(F)c1)CC2 | 272 nM |
| 42 nM | CC[C@@H](Nc1nc2c(c(N[C@@H](CN3CCC[C@H](C)C3)c3cnn(C)c3)n1)C[C@](C)(c1cccc(F)c1)CC2)C1CCC(C(=O)O)CC1 (some centres undefined) | 44 nM |
| 72 nM | CC[C@@H](Nc1nc2c(c(N[C@@H](CN3CCC[C@H](C)C3)c3cnn(C)c3)n1)C[C@](C)(c1ccc(F)cc1)CC2)C1CCC(C(=O)O)CC1 (some centres undefined) | 68 nM |
| 66 nM | CC[C@@H](Nc1nc2c(c(N[C@@H](CN3CCCCCC3)c3cnn(C)c3)n1)C[C@H](c1cccc(F)c1)CC2)C1CCC(C(=O)O)CC1 (some centres undefined) | 45 nM |
|  | CC[C@@H](Nc1nc2c(c(N[C@@H](CN3C4CCCC3CC4)c3ccccc3)n1)C[C@H](c1ccccc1)CC2)[C@H]1CC[C@H](C(=O)O)CC1 | 138 nM |

Source: ChEMBL document CHEMBL6115042, “Hydroquinazoline Derivatives as Novel Natriuretic Peptide Receptor 1 (NPR1) Activators” (ACS Med Chem Lett, 2025)
